Measured values reported in patent publication US20160279246A1, “METHODS AND SYSTEMS FOR CONTINUOUS HETEROGENEOUS CRYSTALLIZATION” (Massachusetts Institute of Technology, priority 2015, published 2016).

Assay: Solubility of API and excipient in the solvent ethanol
Type: physicochemical
Text: The API-Excipient-Solvent selection was important to this process. The specific API chosen was soluble in the solvent; however the excipient was insoluble in the same solvent. The API-Excipient combination was such that the API molecules easily nucleate on the surface of the excipient. Use of low supersaturation stopped primary nucleation, and ensures the presence of heterogeneous nuclei alone. These nuclei grew further during their stay inside the column. Tuning of residence time and supersaturation helps in tuning of the loading (weight of API per unit weight of product) of excipient particles with drug.
An exemplary embodiment was implemented with Acetaminophen-D-mannitol-Ethanol as a sample API-Excipient-Solvent system. Acetaminophen was soluble in ethanol; however D-mannitol was insoluble in ethanol.

SMILES | Solubility in ethanol
CC(=O)Nc1ccc(O)cc1 [Acetaminophen] | soluble
OC[C@@H](O)[C@@H](O)[C@H](O)[C@H](O)CO [D-mannitol] | insoluble
